{
  "source": "patent US7056947B2",
  "about": "“Aza-peptide epoxides” (Georgia Tech Research Corp., priority 2002, dated 2006)",
  "data": [
    {"biological_target": "T1, caspase-3 (Homo sapiens, UniProt P42574)", "T1 construct": "made in house; host or cells: E. coli", "T1 sequence (P42574 29-175 limits assumed)": "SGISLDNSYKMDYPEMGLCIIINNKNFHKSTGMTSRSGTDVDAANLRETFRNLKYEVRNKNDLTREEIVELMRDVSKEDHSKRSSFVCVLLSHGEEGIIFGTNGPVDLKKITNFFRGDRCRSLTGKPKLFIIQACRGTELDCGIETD", "T1 sequence (P42574 176-277 limits assumed)": "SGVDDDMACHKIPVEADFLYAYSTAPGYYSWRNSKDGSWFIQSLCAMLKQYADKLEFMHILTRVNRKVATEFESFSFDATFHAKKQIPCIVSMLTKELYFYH", "assay": "Caspase-3 progress curve assay", "assay_type": "biochemical", "settings": "substrate Z-DEVD-AFC; NI = no inhibition", "protocol": "Caspase-3, -6, and -8. Caspase-3, -6 and -8 were expressed in E. coli and purified according to methods previously described by Stennicke and Salvesen. Assays using the fluorogenic substrate Z-DEVD-AFC (λex=400 nm, λem=505 nm) were carried out on a Molecular Devices fMax fluorescence microplate reader. Inhibition rates and equilibria were determined by the progress curve method. The standard 100 μL reaction was started by adding enzyme to a mixture of substrate (final concentration of Z-DEVD-AFC 100 μM) and various amounts of inhibitor in buffer (50 mM Hepes, 100 mM NaCl, 0.1% (w/v) CHAPS, sucrose 10% (w/v), and 10 mM DTT, at pH 7.4). The caspases were pre-activated for 10 min at 37° C. in the presence of 10 mM DTT.", "units": {"k2 caspase-3": "M⁻¹ s⁻¹"}, "values": [
      {"smiles": "CC(C)C[C@H](NC(=O)OCc1ccccc1)C(=O)N[C@@H](CCC(=O)O)C(=O)N[C@H](C(=O)NN(CC(=O)O)C(=O)[C@H]1O[C@@H]1C(=O)NCCc1ccccc1)[C@@H](C)O", "note": "[26h, (2S,3S)-2-(2-Phenethylcarbamoyl)-3-(N^2-(N -benzyloxycarbonylleucylglutamylthreonyl)-N^1-carboxymethylhydrazinocarbonyl)oxirane]", "k2 caspase-3": "2550 ± 25"},
      {"smiles": "CC[C@H](C)[C@H](NC(=O)OCc1ccccc1)C(=O)N[C@@H](CCC(=O)O)C(=O)N[C@H](C(=O)NN(CC(=O)O)C(=O)[C@H]1O[C@@H]1C(=O)NC(C)C(=O)NCc1ccccc1)[C@@H](C)O", "note": "(stereo partly drawn) [27j, (2S,3S)-2-(1-Benzylcarbamoyl-ethylcarbamoyl)-3-(N^2-(N-benzyloxycarbonylisoleucylglutamylthreonyl)-N^1-carboxymethylhydrazinocarbonyl)oxirane]", "k2 caspase-3": 3050},
      {"smiles": "CCOC(=O)C1OC1C(=O)N(CC(=O)O)NC(=O)C(NC(=O)OCc1ccccc1)C(C)C", "note": "[22c, Cbz-Val-AAsp-(S,S)-EP-COOEt]", "k2 caspase-3": "3650 ± 570"},
      {"smiles": "CC(C)C(NC(=O)OCc1ccccc1)C(=O)NN(CC(=O)O)C(=O)C1OC1C(=O)O", "note": "[22n, Cbz-Val-AAsp-(S,S)-EP-COOH]", "k2 caspase-3": "1110 ± 340"},
      {"smiles": "CC(C)[C@H](NC(=O)OCc1ccccc1)C(=O)NN(CC(=O)O)C(=O)[C@@H]1O[C@H]1c1ccc(Cl)cc1", "note": "(relative stereo) [22b, trans-2-(N^2-(N-Benzyloxycarbonylvalyl)-N^1-carboxymethylhydrazinocarbonyl)-3-(4-chlorophenyl)oxirane]", "k2 caspase-3": "145 ± 18"},
      {"smiles": "CC(C)C[C@H](NC(=O)OCc1ccccc1)C(=O)N[C@@H](CCC(=O)O)C(=O)N[C@H](C(=O)NN(CC(=O)O)C(=O)[C@H]1O[C@@H]1C(=O)NC(C)C(=O)NCc1ccccc1)[C@@H](C)O", "note": "(stereo partly drawn) [26j, (2S,3S)-2-(1-Benzylcarbamoyl-ethylcarbamoyl)-3-(N^2-(N-benzyloxycarbonylleucylglutamylthreonyl)-N^1-carboxymethylhydrazinocarbonyl)oxirane]", "k2 caspase-3": "1280 ± 77"},
      {"smiles": "CCNC(=O)[C@H]1O[C@@H]1C(=O)N(CC(=O)O)NC(=O)[C@H](C)NC(=O)[C@@H](NC(=O)CCc1ccccc1)C(C)C", "note": "[23f, (2S,3S)-2-(2-Ethylcarbamoyl)-3-(N^2-(3-phenylpropanoylvalylalanyl)-N^1-carboxymethylhydrazinocarbonyl)oxirane]", "k2 caspase-3": "1910 ± 370"},
      {"smiles": "CC(C)C(NC(=O)OCc1ccccc1)C(=O)NN(CC(=O)O)C(=O)C1OC1CCc1ccccc1", "note": "(stereo not drawn) [22a, Cbz-Val-AAsp-(trans)-EP-CH2CH2Ph]", "k2 caspase-3": "310 ± 5"}
    ]}
  ]
}
